The target in one assay is T1, Interstitial collagenase (Homo sapiens, UniProt P03956).
T1 sequence (P03956 whole entry): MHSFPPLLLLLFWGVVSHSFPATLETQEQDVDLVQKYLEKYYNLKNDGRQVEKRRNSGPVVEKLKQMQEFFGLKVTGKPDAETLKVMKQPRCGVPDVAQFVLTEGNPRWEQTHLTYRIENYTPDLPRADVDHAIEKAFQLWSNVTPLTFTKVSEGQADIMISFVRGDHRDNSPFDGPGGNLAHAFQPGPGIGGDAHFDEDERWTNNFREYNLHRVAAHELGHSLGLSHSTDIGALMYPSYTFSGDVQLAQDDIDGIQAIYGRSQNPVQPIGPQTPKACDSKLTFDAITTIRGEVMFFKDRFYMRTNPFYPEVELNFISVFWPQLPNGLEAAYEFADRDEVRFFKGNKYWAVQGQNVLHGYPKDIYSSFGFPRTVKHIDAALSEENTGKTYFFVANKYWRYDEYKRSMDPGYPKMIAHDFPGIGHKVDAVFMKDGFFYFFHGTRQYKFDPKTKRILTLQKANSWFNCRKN
The assay is described as follows: Inhibition of recombinant human matrix metalloprotease-1.

For assay [1], the target named is Matrix metalloproteinase-9 (Homo sapiens, UniProt P14780). The experiment in a line: Inhibition of recombinant human matrix metalloprotease-9.
Sequence of Matrix metalloproteinase-9 (P14780 whole entry): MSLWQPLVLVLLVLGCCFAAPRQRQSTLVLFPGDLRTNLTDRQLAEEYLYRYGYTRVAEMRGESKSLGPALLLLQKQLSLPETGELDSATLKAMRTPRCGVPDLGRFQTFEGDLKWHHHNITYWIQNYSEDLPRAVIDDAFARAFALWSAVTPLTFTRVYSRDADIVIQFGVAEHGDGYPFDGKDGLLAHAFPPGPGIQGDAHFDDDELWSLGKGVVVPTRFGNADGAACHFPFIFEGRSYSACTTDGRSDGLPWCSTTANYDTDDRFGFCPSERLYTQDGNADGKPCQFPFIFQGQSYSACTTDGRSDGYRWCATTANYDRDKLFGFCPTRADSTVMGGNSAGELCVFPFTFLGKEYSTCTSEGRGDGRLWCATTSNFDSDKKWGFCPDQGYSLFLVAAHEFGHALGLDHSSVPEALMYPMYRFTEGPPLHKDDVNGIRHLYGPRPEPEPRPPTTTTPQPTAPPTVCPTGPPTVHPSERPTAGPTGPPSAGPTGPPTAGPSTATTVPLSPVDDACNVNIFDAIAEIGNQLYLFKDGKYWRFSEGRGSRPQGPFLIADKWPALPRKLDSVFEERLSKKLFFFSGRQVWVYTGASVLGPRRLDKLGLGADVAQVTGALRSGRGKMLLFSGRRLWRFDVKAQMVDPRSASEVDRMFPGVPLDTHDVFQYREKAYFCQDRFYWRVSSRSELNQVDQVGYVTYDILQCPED
In another assay the target is Stromelysin-1 (Homo sapiens, UniProt P08254). The assay is described as follows: Inhibition of recombinant human matrix metalloprotease-3.
Sequence of Stromelysin-1 (P08254 whole entry, the tested form may be a part): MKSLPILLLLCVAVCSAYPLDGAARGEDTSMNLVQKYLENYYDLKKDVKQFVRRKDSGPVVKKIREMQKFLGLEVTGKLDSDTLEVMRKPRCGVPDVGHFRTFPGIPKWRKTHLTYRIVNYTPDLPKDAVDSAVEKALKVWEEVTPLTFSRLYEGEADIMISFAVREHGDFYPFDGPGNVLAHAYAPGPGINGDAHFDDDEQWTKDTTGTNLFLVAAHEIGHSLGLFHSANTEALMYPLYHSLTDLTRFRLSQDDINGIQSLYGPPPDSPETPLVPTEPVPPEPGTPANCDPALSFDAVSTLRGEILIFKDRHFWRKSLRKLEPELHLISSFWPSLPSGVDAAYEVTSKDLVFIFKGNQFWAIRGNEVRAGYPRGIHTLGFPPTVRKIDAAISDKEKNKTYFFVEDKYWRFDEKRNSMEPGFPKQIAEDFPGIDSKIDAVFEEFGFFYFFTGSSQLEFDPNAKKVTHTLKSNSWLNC
In assay [2] the target is Disintegrin and metalloproteinase domain-containing protein 17 (Homo sapiens, UniProt P78536). The experiment in a line: Inhibition of recombinant human TNF-alpha converting enzyme.
Sequence of Disintegrin and metalloproteinase domain-containing protein 17 (P78536 whole entry, the tested form may be a part): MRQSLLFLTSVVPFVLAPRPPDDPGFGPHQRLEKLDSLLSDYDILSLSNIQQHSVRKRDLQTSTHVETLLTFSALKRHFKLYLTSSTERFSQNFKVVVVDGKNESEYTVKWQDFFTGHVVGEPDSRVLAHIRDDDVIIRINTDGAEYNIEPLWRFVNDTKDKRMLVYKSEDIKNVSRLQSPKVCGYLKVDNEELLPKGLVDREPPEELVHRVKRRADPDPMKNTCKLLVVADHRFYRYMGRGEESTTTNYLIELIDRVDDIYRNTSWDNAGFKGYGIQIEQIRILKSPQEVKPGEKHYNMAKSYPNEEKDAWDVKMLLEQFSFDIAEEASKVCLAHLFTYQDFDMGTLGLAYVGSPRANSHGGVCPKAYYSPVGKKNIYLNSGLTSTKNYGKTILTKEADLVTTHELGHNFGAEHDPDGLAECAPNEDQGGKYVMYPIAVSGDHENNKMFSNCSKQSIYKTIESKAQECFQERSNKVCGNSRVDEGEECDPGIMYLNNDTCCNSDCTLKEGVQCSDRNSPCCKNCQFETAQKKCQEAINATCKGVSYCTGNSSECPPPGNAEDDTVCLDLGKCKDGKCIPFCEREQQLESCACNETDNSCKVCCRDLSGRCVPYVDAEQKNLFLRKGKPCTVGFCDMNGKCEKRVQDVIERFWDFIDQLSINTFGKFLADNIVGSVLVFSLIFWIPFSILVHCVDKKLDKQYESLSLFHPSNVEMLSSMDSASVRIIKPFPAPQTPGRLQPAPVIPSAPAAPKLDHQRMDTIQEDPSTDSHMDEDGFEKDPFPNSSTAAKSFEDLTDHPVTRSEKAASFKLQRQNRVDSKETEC

The structures appear in SMILES notation. pKi: −log10 of the molar value. Some results are limits rather than exact numbers.

Take `CC#CCOc1ccc(S(=O)(=O)N2C[C@@H](O)[C@@H](O)[C@H](O)[C@@H]2C(=O)NO)cc1`: the pKi – broadly, the Ki on a negative log10 scale, so that one unit is a factor of ten – at Interstitial collagenase was 6.89; in assay [1], 7.85; on Stromelysin-1, 8.48.
For `CC#CCOc1ccc(S(=O)(=O)N2C[C@@H](O)[C@H]3OC(C)(C)O[C@@H]3[C@@H]2C(=O)NO)cc1`, the pKi is less than 6.07 on Interstitial collagenase, 6.93 in assay [1], 7.24 at Stromelysin-1 and 8.73 in assay [2].
With `CC#CCOc1ccc(S(=O)(=O)N2C[C@@H](O)[C@@H](O)[C@H](OC)[C@@H]2C(=O)NO)cc1`, the pKi was 7.05 at Interstitial collagenase, 7.92 in assay [1], 9.37 on Stromelysin-1 and 8.73 in assay [2].
The like results for `CC#CCOc1ccc(S(=O)(=O)N2C[C@H]3OC(C)(C)O[C@H]3[C@H](O)[C@@H]2C(=O)NO)cc1` were, in that order, less than 6.07, 7.11, 7.53 and 9.24.
The like results for `CC#CCOc1ccc(S(=O)(=O)N2C[C@H]3OC(C)(C)O[C@H]3[C@H](OC)[C@@H]2C(=O)NO)cc1` were, in that order, 6.26, 7.01, 7.94 and 9.08.

The values are drawn from ChEMBL document CHEMBL1147637, “Synthesis and biological activity of selective azasugar-based TACE inhibitors” (Bioorg Med Chem Lett, 2004).
